Experimental data taken from ChEMBL document CHEMBL5321293, “Discovery of ERD-3111 as a Potent and Orally Efficacious Estrogen Receptor PROTAC Degrader with Strong Antitumor Activity” (J Med Chem, 2023).

Key:
[1] = biological target: T1, Protein cereblon/Estrogen receptor (Homo sapiens, UniProt P03372+Q96SW2); assay: Protac activity at human ERalpha in human MCF7 cells assessed as protein degradation incubated for 12 hrs by ICW blot assay; type: cell-based
Target sequence in this assay (P03372 whole entry): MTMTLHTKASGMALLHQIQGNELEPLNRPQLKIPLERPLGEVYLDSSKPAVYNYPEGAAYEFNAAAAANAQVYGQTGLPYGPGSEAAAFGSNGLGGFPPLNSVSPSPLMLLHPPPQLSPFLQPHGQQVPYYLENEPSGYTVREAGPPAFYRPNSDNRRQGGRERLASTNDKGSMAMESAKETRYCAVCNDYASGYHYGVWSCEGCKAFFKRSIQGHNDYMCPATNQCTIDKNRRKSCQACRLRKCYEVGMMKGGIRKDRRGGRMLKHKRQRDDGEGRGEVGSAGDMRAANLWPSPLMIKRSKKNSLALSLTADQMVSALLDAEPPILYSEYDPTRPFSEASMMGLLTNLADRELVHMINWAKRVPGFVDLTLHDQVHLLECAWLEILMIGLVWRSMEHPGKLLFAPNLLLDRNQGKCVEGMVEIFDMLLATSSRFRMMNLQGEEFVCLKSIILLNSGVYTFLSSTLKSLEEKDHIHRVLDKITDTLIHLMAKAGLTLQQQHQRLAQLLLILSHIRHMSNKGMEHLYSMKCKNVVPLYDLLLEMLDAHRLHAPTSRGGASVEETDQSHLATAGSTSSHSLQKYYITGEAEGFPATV
Target sequence in this assay (Q96SW2 whole entry): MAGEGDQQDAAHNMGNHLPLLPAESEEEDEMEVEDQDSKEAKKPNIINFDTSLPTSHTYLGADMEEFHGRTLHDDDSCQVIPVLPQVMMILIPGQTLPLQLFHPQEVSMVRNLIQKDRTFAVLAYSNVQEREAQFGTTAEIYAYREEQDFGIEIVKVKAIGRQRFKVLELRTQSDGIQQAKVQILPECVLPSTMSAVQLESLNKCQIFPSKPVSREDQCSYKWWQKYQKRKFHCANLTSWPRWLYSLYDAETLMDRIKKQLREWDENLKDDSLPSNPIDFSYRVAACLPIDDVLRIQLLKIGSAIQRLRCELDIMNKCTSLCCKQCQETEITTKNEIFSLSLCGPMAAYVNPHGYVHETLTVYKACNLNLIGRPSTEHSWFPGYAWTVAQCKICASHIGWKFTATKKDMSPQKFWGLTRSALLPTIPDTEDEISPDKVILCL

[2] = biological target: T1, Protein cereblon/Estrogen receptor; assay: Protac activity at human ERalpha in human MCF7 cells assessed as induction of ERalpha degradation by measuring maximum efficacy at 1 uM incubated for 12 hrs by ICW blot assay relative to control; type: cell-based
Target sequence in this assay (P03372 whole entry, looked up): as the sequence (P03372 whole entry) above
Target sequence in this assay (Q96SW2 whole entry, looked up): as the sequence (Q96SW2 whole entry) above

[3] = Volume of distribution at steady state in Sprague-Dawley rat at 1 mg/kg, iv and measured upto 24 hrs by LC-MS/MS analysis; details: in vivo
[4] = Clearance in Sprague-Dawley rat at 1 mg/kg, iv and measured upto 24 hrs by LC-MS/MS analysis; details: in vivo
[5] = Half life in Sprague-Dawley rat at 3 mg/kg, po and measured upto 24 hrs by LC-MS/MS analysis; details: in vivo
[6] = AUC in Sprague-Dawley rat at 3 mg/kg, po and measured upto 24 hrs by LC-MS/MS analysis; type: ADME, organism-based; design: dose 3 mg/kg, time < 24 hrs, route po; details: Sprague-Dawley, in vivo
[7] = Volume of distribution at steady state in ICR mouse at 1 mg/kg, iv and measured upto 24 hrs by LC-MS/MS analysis; type: ADME, organism-based; details: in vivo, read-out: Vdss
[8] = Clearance in ICR mouse at 1 mg/kg, iv and measured upto 24 hrs by LC-MS/MS analysis; type: ADME, organism-based; details: in vivo
[9] = Half life in ICR mouse at 3 mg/kg, po and measured upto 24 hrs by LC-MS/MS analysis; type: ADME, organism-based; details: in vivo
[10] = Cmax in ICR mouse at 3 mg/kg, po and measured upto 24 hrs by LC-MS/MS analysis; type: ADME, organism-based; design: dose 3 mg/kg, time < 24 hrs, route po; details: in vivo
[11] = AUC in ICR mouse at 3 mg/kg, po and measured upto 24 hrs by LC-MS/MS analysis; type: ADME, organism-based; design: dose 3 mg/kg, time < 24 hrs, route po; details: in vivo
[12] = Oral bioavailability in ICR mouse at 3 mg/kg and measured upto 24 hrs by LC-MS/MS analysis; type: ADME, organism-based; details: in vivo
in vivo [13] = details: Sprague-Dawley, rat, po, 3 mg/kg
in vivo [14] = details: Sprague-Dawley, rat, po, 3 mg/kg; remark: listed apart in the source
[15] = Plasma concentration in Sprague-Dawley rat at 3 mg/kg,po and mesured after 1 hrs by LC-MS/MS analysis; type: ADME, organism-based
[16] = Plasma concentration in Sprague-Dawley rat at 3 mg/kg,po and mesured after 3 hrs by LC-MS/MS analysis; type: ADME, organism-based
[17] = Plasma concentration in Sprague-Dawley rat at 3 mg/kg,po and mesured after 6 hrs by LC-MS/MS analysis; type: ADME, organism-based

| Structure (SMILES) | DC50 [1] | Emax [2] | further results |
| --- | --- | --- | --- |
| O=C1CCC(N2C(=O)c3cc4c(cc3C2=O)CN(CC(=O)N2CC3(C2)CN(c2ccc([C@@H]5c6ccc(O)cc6CC[C@@H]5c5ccccc5)cc2)C3)C4)C(=O)N1 (stereo not given in full) | 11 nM | 65% | – |
| O=C1CCC(N2C(=O)c3cc4c(cc3C2=O)CN(CC2CCN(c3ccc([C@@H]5c6ccc(O)cc6CC[C@@H]5c5ccccc5)cc3)CC2)C4)C(=O)N1 (stereo not given in full) | 415 nM | 65% | – |
| O=C1CCC(N2C(=O)c3cc4c(cc3C2=O)CN(CC(=O)N2CCC3(C2)CN(c2ccc([C@@H]5c6ccc(O)cc6CC[C@@H]5c5ccccc5)cc2)C3)C4)C(=O)N1 (stereo not given in full) | > 1000 nM | 23% | – |
| COc1cc(N2CCC3(CCN(C(=O)CN4Cc5cc6c(cc5C4)C(=O)N(C4CCC(=O)NC4=O)C6=O)CC3)CC2)ccc1[C@@H]1c2ccc3[nH]ncc3c2C[C@@H](C)N1CC(F)F (stereo not given in full) | 1.4 nM | 82% | – |
| O=C1CCC(N2C(=O)c3cc4c(cc3C2=O)CN(CCCCCC2CCN(c3ccc([C@@H]5c6ccc(O)cc6CC[C@@H]5c5ccccc5)cc3)CC2)C4)C(=O)N1 (stereo not given in full) | 31 nM | 106% | – |
| O=C1CCC(N2C(=O)c3cc4c(cc3C2=O)CN(CC(=O)N2CCC3(CCN(c5ccc([C@@H]6c7ccc(O)cc7CC[C@@H]6c6ccccc6)cc5)CC3)C2)C4)C(=O)N1 (stereo not given in full) | 4.6 nM | 75% | – |
| O=C1CCC(N2C(=O)c3cc4c(cc3C2=O)CN(CC2CN(CC3CCN(c5ccc([C@@H]6c7ccc(O)cc7CC[C@@H]6c6ccccc6)cc5)CC3)C2)C4)C(=O)N1 (stereo not given in full) | 21 nM | 59% | – |
| O=C1CCC(N2C(=O)c3cc4c(cc3C2=O)CN(CCCCC2CCN(c3ccc([C@@H]5c6ccc(O)cc6CC[C@@H]5c5ccccc5)cc3)CC2)C4)C(=O)N1 (stereo not given in full) | 236 nM | 67% | – |
| O=C1CCC(N2C(=O)c3cc4c(cc3C2=O)CN(CC2CCN(CC3CN(c5ccc([C@@H]6c7ccc(O)cc7CC[C@@H]6c6ccccc6)cc5)C3)CC2)C4)C(=O)N1 (stereo not given in full) | 19 nM | 64% | – |
| O=C1CCC(N2C(=O)c3cc4c(cc3C2=O)CN(CCC2CCN(c3ccc([C@@H]5c6ccc(O)cc6CC[C@@H]5c5ccccc5)cc3)CC2)C4)C(=O)N1 (stereo not given in full) | 1000 nM | 50% | – |
| O=C1CCC(N2C(=O)c3cc4c(cc3C2=O)CN(C(=O)C2CCN(CC3CN(c5ccc([C@@H]6c7ccc(O)cc7CC[C@@H]6c6ccccc6)cc5)C3)CC2)C4)C(=O)N1 (stereo not given in full) | > 1000 nM | 40% | – |
| O=C1CCC(N2C(=O)c3cc4c(cc3C2=O)CN(CC2CN(C(=O)C3CCN(c5ccc([C@@H]6c7ccc(O)cc7CC[C@@H]6c6ccccc6)cc5)CC3)C2)C4)C(=O)N1 (stereo not given in full) | 6 nM | 84% | – |
| O=C1CCC(N2C(=O)c3cc4c(cc3C2=O)CN(CC(=O)N2CCC3(CC2)CCN(c2ccc([C@H]5c6ccc(O)cc6CC[C@H]5c5ccccc5)cc2)C3)C4)C(=O)N1 (single isomer, unassigned) | 18 nM | 58% | – |
| O=C1CCC(N2C(=O)c3cc4c(cc3C2=O)CN(CC2CCN(C(=O)C3CCN(c5ccc([C@@H]6c7ccc(O)cc7CC[C@@H]6c6ccccc6)cc5)CC3)CC2)C4)C(=O)N1 (stereo not given in full) | 13 nM | 76% | – |
| O=C1CCC(N2C(=O)c3cc4c(cc3C2=O)CN(CC(=O)N2CCC3(CC2)CCN(c2ccc([C@@H]5c6ccc(O)cc6CC[C@@H]5c5ccccc5)cc2)CC3)C4)C(=O)N1 (stereo not given in full) | 5.5 nM | 90% | Vd at 24 h [3]: 1.6 L/kg; clearance at 24 h [4]: 20 mL/min/kg; half-life at 24 h [5]: 2.5 h; AUC at 24 h [6]: 328 ng·h/mL; Vd [7]: 2.2 L/kg; clearance [8]: 31 mL/min/kg; half-life [9]: 3.1 h; Cmax [10]: 146 ng/mL; AUC at 24 h [11]: 550 ng·h/mL; bioavailability [12]: 35%; Cmax at 24 h (in vivo [13]): 69.5 ng/mL; bioavailability at 24 h (in vivo [14]): 13% |
| O=C1CCC(N2C(=O)c3cc4c(cc3C2=O)CN(CCCC2CCN(c3ccc([C@@H]5c6ccc(O)cc6CC[C@@H]5c5ccccc5)cc3)CC2)C4)C(=O)N1 (stereo not given in full) | 171 nM | 79% | – |

More lines, main results first:

| DC50 [1] | Emax [2] | Structure (SMILES) | further results |
| --- | --- | --- | --- |
| 1.8 nM | 68% | O=C1CCC(N2C(=O)c3cc4c(cc3C2=O)CN(CC(=O)N2CCC3(CC2)CN(c2ccc([C@@H]5c6ccc(O)cc6CC[C@@H]5c5ccccc5)cc2)C3)C4)C(=O)N1 (stereo not given in full) | – |
| 295 nM | 57% | O=C1CCC(N2C(=O)c3cc4c(cc3C2=O)CN(C2CCN(CC3CN(c5ccc([C@@H]6c7ccc(O)cc7CC[C@@H]6c6ccccc6)cc5)C3)CC2)C4)C(=O)N1 (stereo not given in full) | – |
| > 1000 nM | 16% | O=C1CCC(N2C(=O)c3cc4c(cc3C2=O)CN(C(=O)CN2CCC3(CC2)CCN(c2ccc([C@@H]5c6ccc(O)cc6CC[C@@H]5c5ccccc5)cc2)CC3)C4)C(=O)N1 (stereo not given in full) | – |
| 129 nM | 101% | O=C1CCC(N2C(=O)c3cc4c(cc3C2=O)CN(CCCCCCC2CCN(c3ccc([C@@H]5c6ccc(O)cc6CC[C@@H]5c5ccccc5)cc3)CC2)C4)C(=O)N1 (stereo not given in full) | – |
| 989 nM | 50% | O=C1CCC(N2C(=O)c3cc4c(cc3C2=O)CN(C2CN(CC3CCN(c5ccc([C@@H]6c7ccc(O)cc7CC[C@@H]6c6ccccc6)cc5)CC3)C2)C4)C(=O)N1 (stereo not given in full) | – |
| 9.7 nM | 63% | O=C1CCC(N2C(=O)c3cc4c(cc3C2=O)CN(C(=O)C2CCN(CC3CCN(c5ccc([C@@H]6c7ccc(O)cc7CC[C@@H]6c6ccccc6)cc5)CC3)CC2)C4)C(=O)N1 (stereo not given in full) | – |
| 4 nM | 63% | O=C1CCC(N2C(=O)c3cc4c(cc3C2=O)CN(CC(=O)N2CC3(CCN(c5ccc([C@@H]6c7ccc(O)cc7CC[C@@H]6c6ccccc6)cc5)C3)C2)C4)C(=O)N1 (stereo not given in full) | – |
| 2 nM | 88% | C[C@@H]1Cc2c(ccc3[nH]ncc23)[C@@H](c2c(F)cc(N3CCC4(CCN(C(=O)CN5Cc6cc7c(cc6C5)C(=O)N(C5CCC(=O)NC5=O)C7=O)CC4)CC3)cc2F)N1CC(F)(F)F (stereo not given in full) | – |
| 2.3 nM | 84% | O=C1CCC(N2C(=O)c3cc4c(cc3C2=O)CN(C2CCN(CC3CCN(c5ccc([C@@H]6c7ccc(O)cc7CC[C@@H]6c6ccccc6)cc5)CC3)CC2)C4)C(=O)N1 (stereo not given in full) | Vd at 24 h [3]: 8.8 L/kg; clearance at 24 h [4]: 25.7 mL/min/kg; half-life at 24 h [5]: 4 h; AUC at 24 h [6]: 552 ng·h/mL; Vd [7]: 16.2 L/kg; clearance [8]: 14.2 mL/min/kg; half-life [9]: 9.8 h; Cmax [10]: 93.3 ng/mL; AUC at 24 h [11]: 1480 ng·h/mL; bioavailability [12]: 58%; Cmax at 24 h (in vivo [13]): 54.6 ng/mL; bioavailability at 24 h (in vivo [14]): 30% |
| 32 nM | 87% | O=C1CCC(N2C(=O)c3cc4c(cc3C2=O)CN(CC2CCN(C(=O)C3CN(c5ccc([C@@H]6c7ccc(O)cc7CC[C@@H]6c6ccccc6)cc5)C3)CC2)C4)C(=O)N1 (stereo not given in full) | – |
| 0.1 nM | 97% | C[C@@H]1Cc2c([nH]c3ccccc23)[C@@H](c2c(F)cc(N3CCC4(CCN(C(=O)CN5Cc6cc7c(cc6C5)C(=O)N(C5CCC(=O)NC5=O)C7=O)CC4)CC3)cc2F)N1CC(F)(F)CO (stereo not given in full) | concentration at 1 h [15]: 9.3 ng/mL; concentration at 3 h [16]: 6.6 ng/mL; concentration at 6 h [17]: 3 ng/mL |
| 3.8 nM | 107% | C[C@@H]1Cc2c(ccc3[nH]ncc23)[C@@H](c2ccc(N3CCC4(CCN(C(=O)CN5Cc6cc7c(cc6C5)C(=O)N(C5CCC(=O)NC5=O)C7=O)CC4)CC3)cn2)N1CC(F)(F)F (stereo not given in full) | Vd at 24 h [3]: 3.7 L/kg; clearance at 24 h [4]: 27 mL/min/kg; half-life at 24 h [5]: 2.3 h; AUC at 24 h [6]: 243 ng·h/mL; Cmax at 24 h (in vivo [13]): 51.8 ng/mL; bioavailability at 24 h (in vivo [14]): 14% |
| 2.8 nM | 71% | O=C1CCC(N2C(=O)c3cc4c(cc3C2=O)CN(CC(=O)N2CC3(CCN(c5ccc([C@@H]6c7ccc(O)cc7CC[C@@H]6c6ccccc6)cc5)CC3)C2)C4)C(=O)N1 (stereo not given in full) | – |
| 393 nM | 58% | O=C1CCC(N2C(=O)c3cc4c(cc3C2=O)CN(CC(=O)N2CCCC3(CCN(c5ccc([C@@H]6c7ccc(O)cc7CC[C@@H]6c6ccccc6)cc5)CC3)C2)C4)C(=O)N1 (stereo not given in full) | – |
| > 1000 nM | 32% | O=C1CCC(N2C(=O)c3cc4c(cc3C2=O)CN(C2CCN(c3ccc([C@@H]5c6ccc(O)cc6CC[C@@H]5c5ccccc5)cc3)CC2)C4)C(=O)N1 (stereo not given in full) | – |
| 1.6 nM | 95% | O=C1CCC(N2C(=O)c3cc4c(cc3C2=O)CN(C2CCN(C(=O)C3CCN(c5ccc([C@@H]6c7ccc(O)cc7CC[C@@H]6c6ccccc6)cc5)CC3)CC2)C4)C(=O)N1 (stereo not given in full) | Vd at 24 h [3]: 2 L/kg; clearance at 24 h [4]: 23.1 mL/min/kg; half-life at 24 h [5]: 2.7 h; AUC at 24 h [6]: 206 ng·h/mL; Cmax at 24 h (in vivo [13]): 40.6 ng/mL; bioavailability at 24 h (in vivo [14]): 10% |
| 14 nM | 112% | C[C@@H]1Cc2c(ccc3[nH]ncc23)[C@@H](c2ccc(N3CCC4(CCN(C(=O)CN5Cc6cc7c(cc6C5)C(=O)N(C5CCC(=O)NC5=O)C7=O)CC4)CC3)cn2)N1CC(F)F (stereo not given in full) | – |
